Experiments:
diagnosed torn muscle = assay: Treatment of a subject with diagnosed torn muscle; type: in vivo, human; settings: person; for side effect of the prescriptions: NAPROSYN and FLEXERIL prescribed together; for relief by the third day: NAPROSYN and FLEXERIL prescribed together with bed rest, ice packs, heat
Description: The seventh subject was a person with a diagnosed torn muscle. Emergency Room treatment prescribed NAPROSYN (the trademark name for the drug naproxen sodium) an NSAID, and FLEXERIL(the trademark name for the drug cyclobenzaprene) a muscle relaxant. Also prescribed was bed rest and ice packs for the next 2 to 3 days. Heat was to be used by the second day to relieve spasm. […] This subject was given a protocol of 5 gram of ACI per dose, not the 3 gram ACI per dose as in the previous examples. This protocol was to be taken every hours 4 times per day.
In all examples mentioned there was no compounding of any pills and no placebos were given.

arthritis = settings: as reported by the American Rheumatism Association; cited from earlier work

Row | Structure (SMILES) | side effect of the prescriptions (diagnosed torn muscle) | relief by the third day (diagnosed torn muscle) | effect on arthritis compared with placebo (arthritis)
1 | COc1ccc2cc([C@H](C)C(=O)O)ccc2c1 [NAPROSYN, naproxen sodium] | made them drowsy | no relief | –
2 | CN(C)CCC=C1c2ccccc2C=Cc2ccccc21 [FLEXERIL, cyclobenzaprene] | made them drowsy | no relief | –
3 | COc1ccc2c(c1)c(CC(=O)O)c(C)n2C(=O)c1ccc(Cl)cc1 [INDOCIN, indomethacin] | – | – | no more effect on arthritis than a placebo

Reference: US6492334B1, “Tri-compound analgesic for treating inflammation and pain” (priority 1999, dated 2002)
